Measured values: patent US11053204B2, “Pyrimidinyloxy benzene derivatives as herbicides” (FMC Corporation, priority 2015, dated 2021)

Assays:
Format in all cases: in vivo
[1] = tested on: ducksalad (Heteranthera limosa); assay: Test B flooded paddy test, plant response rating; conditions: Heteranthera limosa, 312 h; 250 g ai/ha; Flood; scale of 0 to 100 where 0 is no effect and 100 is complete control; 13 to 15 days
Procedure, shortened: (§1)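 In-water treatment: compound dosed into 3 cm flood over soil, water level unchanged throughout. Controls run alongside; visual assessment at day 13–15.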

rice (Oryza sativa) = assay: Test B flooded paddy test, plant response rating; conditions: Oryza sativa, 312 h; 250 g ai/ha; Flood; scale of 0 to 100 where 0 is no effect and 100 is complete control; 13 to 15 days
Procedure, shortened: as §1

[2] = tested on: barnyardgrass (Echinochloa crus-galli); assay: Test B flooded paddy test, plant response rating; conditions: Echinochloa crus-galli, 312 h; 250 g ai/ha; Flood; scale of 0 to 100 where 0 is no effect and 100 is complete control; 13 to 15 days
Procedure, shortened: as §1

[3] = tested on: sedge, umbrella (small-flower umbrella sedge, Cyperus difformis); assay: Test B flooded paddy test, plant response rating; conditions: Cyperus difformis, 312 h; 250 g ai/ha; Flood; scale of 0 to 100 where 0 is no effect and 100 is complete control; 13 to 15 days
Procedure, shortened: as §1

[4] = tested on: morningglory (Ipomoea coccinea); assay: Test C postemergence, plant response rating; conditions: Ipomoea, post-emergence; for pest or weed control at 16 g/ha: 16 g ai/ha; for pest or weed control at 16 g/ha / pest or weed control at 31 g/ha: scale 0 to 100; for pest or weed control at 31 g/ha: 31 g ai/ha; for pest or weed control at 62 g/ha: 62 g ai/ha; for pest or weed control at 62 g/ha / pest or weed control at 125 g/ha: scale 0 to 100 (0 no effect, 100 complete control); for pest or weed control at 125 g/ha: 125 g ai/ha
Procedure, shortened: (§2)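 Pre-emergence: seeds sown in loam soil–sand blend or silt loam and sprayed with test chemicals in a non-phytotoxic solvent mixture with surfactant. Post-emergence: plants 2 to 18 cm (1- to 4-leaf stage) in peat-based potting medium, same formulation. Greenhouse 13 to 15 d; visual rating 0 (no effect) to 100 (complete control) versus controls.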

[5] = tested on: chickweed (common chickweed, Stellaria media); assay: Test C postemergence, plant response rating; conditions: Stellaria media, post-emergence; for pest or weed control at 16 g/ha: 16 g ai/ha; for pest or weed control at 16 g/ha / pest or weed control at 31 g/ha: scale 0 to 100; for pest or weed control at 31 g/ha: 31 g ai/ha; for pest or weed control at 62 g/ha: 62 g ai/ha; for pest or weed control at 62 g/ha / pest or weed control at 125 g/ha: scale 0 to 100 (0 no effect, 100 complete control); for pest or weed control at 125 g/ha: 125 g ai/ha
Procedure, shortened: as §2

kochia (Kochia scoparia) [6] = assay: Test C postemergence, plant response rating; conditions: Bassia scoparia, post-emergence; for pest or weed control at 16 g/ha: 16 g ai/ha; for pest or weed control at 16 g/ha / pest or weed control at 31 g/ha: scale 0 to 100; for pest or weed control at 31 g/ha: 31 g ai/ha; for pest or weed control at 62 g/ha: 62 g ai/ha; for pest or weed control at 62 g/ha / pest or weed control at 125 g/ha: scale 0 to 100 (0 no effect, 100 complete control); for pest or weed control at 125 g/ha: 125 g ai/ha
Procedure, shortened: as §2

[7] = tested on: barnyardgrass (Echinochloa crus-galli); assay: Test A postemergence, visual injury rating; conditions: Echinochloa crus-galli, post-emergence, 240 h, 0 is no effect, 100 is complete control, read-out: Barnyardgrass plant response rating (0 to 100 scale); for pest or weed control at 125 g/ha: 125 g ai/ha; for pest or weed control at 500 g/ha: 500 g ai/ha
Procedure, shortened: (§3)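 Greenhouse pot test, loam/sand soil. Formulation: non-phytotoxic solvent mix plus surfactant. Pre: directed spray onto soil after sowing. Post: plants at 1–2 leaf, 2–10 cm. Rated visually vs untreated controls at ~10 d, 0 (no effect) to 100 (complete control).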

[8] = tested on: ragweed (common ragweed, Ambrosia elatior); assay: Test A postemergence, visual injury rating; conditions: Ambrosia artemisiifolia, post-emergence, 240 h, 0 is no effect, 100 is complete control, read-out: Ragweed plant response rating (0 to 100 scale); for pest or weed control at 125 g/ha: 125 g ai/ha; for pest or weed control at 500 g/ha: 500 g ai/ha
Procedure, shortened: as §3

[9] = tested on: giant foxtail (Setaria faberii); assay: Test A postemergence, visual injury rating; conditions: Setaria faberi, post-emergence, 240 h, 0 is no effect, 100 is complete control, read-out: Foxtail, Giant plant response rating (0 to 100 scale); for pest or weed control at 125 g/ha: 125 g ai/ha; for pest or weed control at 500 g/ha: 500 g ai/ha
Procedure, shortened: as §3

corn (Zea mays) = assay: Test A postemergence, visual injury rating; conditions: Zea mays, post-emergence, 240 h, 0 is no effect, 100 is complete control, read-out: Corn plant response rating (0 to 100 scale); for plant injury at 125 g/ha: 125 g ai/ha; for plant injury at 500 g/ha: 500 g ai/ha
Procedure, shortened: as §3

[10] = tested on: blackgrass (Alopecurus myosuroides); assay: Test A postemergence, visual injury rating; conditions: Alopecurus myosuroides, post-emergence, 240 h, 0 is no effect, 100 is complete control, read-out: Blackgrass plant response rating (0 to 100 scale); for pest or weed control at 125 g/ha: 125 g ai/ha; for pest or weed control at 500 g/ha: 500 g ai/ha
Procedure, shortened: as §3

[11] = tested on: galium (catchweed bedstraw, Galium aparine); assay: Test A postemergence, visual injury rating; conditions: Galium, post-emergence, 240 h, 0 is no effect, 100 is complete control, read-out: Galium plant response rating (0 to 100 scale); for pest or weed control at 125 g/ha: 125 g ai/ha; for pest or weed control at 500 g/ha: 500 g ai/ha
Procedure, shortened: as §3

kochia (Kochia scoparia) [12] = assay: Test A postemergence, visual injury rating; conditions: Bassia scoparia, post-emergence, 240 h, 0 is no effect, 100 is complete control, read-out: Kochia plant response rating (0 to 100 scale); for pest or weed control at 125 g/ha: 125 g ai/ha; for pest or weed control at 500 g/ha: 500 g ai/ha
Procedure, shortened: as §3

[13] = tested on: Italian ryegrass (Lolium multiflorum); assay: Test A postemergence, visual injury rating; conditions: Lolium multiflorum, post-emergence, 240 h, 0 is no effect, 100 is complete control, read-out: Ryegrass, Italian plant response rating (0 to 100 scale); for pest or weed control at 125 g/ha: 125 g ai/ha; for pest or weed control at 500 g/ha: 500 g ai/ha
Procedure, shortened: as §3

[14] = tested on: pigweed (Amaranthus retroflexus); assay: Test A postemergence, visual injury rating; conditions: Amaranthus retroflexus, post-emergence, 240 h, 0 is no effect, 100 is complete control, read-out: Pigweed plant response rating (0 to 100 scale); for pest or weed control at 125 g/ha: 125 g ai/ha; for pest or weed control at 500 g/ha: 500 g ai/ha
Procedure, shortened: as §3

[15] = tested on: wheat (Triticum aestivum); assay: Test A postemergence, visual injury rating; conditions: Triticum aestivum, post-emergence, 240 h, 0 is no effect, 100 is complete control, read-out: Wheat plant response rating (0 to 100 scale); for plant injury at 125 g/ha: 125 g ai/ha; for plant injury at 500 g/ha: 500 g ai/ha
Procedure, shortened: as §3

kochia (Kochia scoparia) [16] = assay: Test A preemergence, visual injury rating; conditions: Bassia scoparia, pre-emergence, 240 h, 0 to 100 scale (0 no effect, 100 complete control), read-out: Kochia plant response rating; for pest or weed control at 125 g/ha: 125 g ai/ha; for pest or weed control at 500 g/ha: 500 g ai/ha
Procedure, shortened: as §3

[17] = tested on: pigweed (Amaranthus retroflexus); assay: Test A preemergence, visual injury rating; conditions: Amaranthus retroflexus, pre-emergence, 240 h, 0 to 100 scale (0 no effect, 100 complete control), read-out: Pigweed plant response rating; for pest or weed control at 125 g/ha: 125 g ai/ha; for pest or weed control at 500 g/ha: 500 g ai/ha
Procedure, shortened: as §3

Row | Compound | pest or weed control at 250 g/ha [1] [%] | plant injury at 250 g/ha (rice (Oryza sativa)) [%] | pest or weed control at 250 g/ha [2] [%] | pest or weed control at 250 g/ha [3] [%] | pest or weed control at 16 g/ha [4] [%] | pest or weed control at 31 g/ha [4] [%] | pest or weed control at 62 g/ha [4] [%] | pest or weed control at 125 g/ha [4] [%] | pest or weed control at 16 g/ha [5] [%] | pest or weed control at 31 g/ha [5] [%] | pest or weed control at 62 g/ha [5] [%] | pest or weed control at 125 g/ha [5] [%] | pest or weed control at 16 g/ha (kochia (Kochia scoparia) [6]) [%] | pest or weed control at 31 g/ha (kochia (Kochia scoparia) [6]) [%] | pest or weed control at 62 g/ha (kochia (Kochia scoparia) [6]) [%] | pest or weed control at 125 g/ha (kochia (Kochia scoparia) [6]) [%] | pest or weed control at 125 g/ha [7] [%] | pest or weed control at 500 g/ha [7] [%] | pest or weed control at 125 g/ha [8] [%] | pest or weed control at 500 g/ha [8] [%] | further results
1 | C=CCOC(=O)c1c(Br)cccc1Oc1ncc(Cl)cn1 [Compound 22, 2-propen-1-yl 2-bromo-6-[(5-chloro-2-pyrimidinyl)oxy]benzoate] | 40 | 0 | 0 | 50 | 5 | 10 | 35 | 50 | 20 | 60 | 65 | 60 | 50 | 80 | 85 | 50 | 60 | 100 | 0 | 30 | pest or weed control at 125 g/ha [9]: 80%; pest or weed control at 500 g/ha [9]: 100%; plant injury at 125 g/ha (corn (Zea mays)): 30%; plant injury at 500 g/ha (corn (Zea mays)): 50%; pest or weed control at 125 g/ha [10]: 60%; pest or weed control at 500 g/ha [10]: 90%; pest or weed control at 125 g/ha [11]: 30%; pest or weed control at 500 g/ha [11]: 90%; pest or weed control at 125 g/ha (kochia (Kochia scoparia) [12]): 90%; pest or weed control at 500 g/ha (kochia (Kochia scoparia) [12]): 100%; pest or weed control at 125 g/ha [13]: 0%; pest or weed control at 500 g/ha [13]: 60%; pest or weed control at 125 g/ha [14]: 100%; pest or weed control at 500 g/ha [14]: 100%; plant injury at 125 g/ha [15]: 0%; plant injury at 500 g/ha [15]: 30%; pest or weed control at 125 g/ha (kochia (Kochia scoparia) [16]): 30%; pest or weed control at 500 g/ha (kochia (Kochia scoparia) [16]): 100%; pest or weed control at 125 g/ha [17]: 100%; pest or weed control at 500 g/ha [17]: 100%
2 | O=C(OCC(F)(F)C(F)(F)F)c1c(Br)cccc1Oc1ncc(Cl)cn1 [Compound 23, 2,2,3,3,3-pentafluoropropyl 2-bromo-6-[(5-chloro-2-pyrimidinyl)oxy]benzoate] | 30 | 15 | 0 | 95 | 10 | 55 | 60 | 35 | 5 | 50 | 50 | 85 | 5 | 50 | 55 | 85 | 10 | 50 | 0 | 10 | pest or weed control at 125 g/ha [9]: 30%; pest or weed control at 500 g/ha [9]: 80%; plant injury at 125 g/ha (corn (Zea mays)): 10%; plant injury at 500 g/ha (corn (Zea mays)): 20%; pest or weed control at 125 g/ha [10]: 10%; pest or weed control at 500 g/ha [10]: 50%; pest or weed control at 125 g/ha [11]: 90%; pest or weed control at 500 g/ha [11]: 100%; pest or weed control at 125 g/ha (kochia (Kochia scoparia) [12]): 80%; pest or weed control at 500 g/ha (kochia (Kochia scoparia) [12]): 100%; pest or weed control at 125 g/ha [13]: 10%; pest or weed control at 500 g/ha [13]: 70%; pest or weed control at 125 g/ha [14]: 100%; pest or weed control at 500 g/ha [14]: 100%; plant injury at 125 g/ha [15]: 0%; plant injury at 500 g/ha [15]: 10%; pest or weed control at 125 g/ha (kochia (Kochia scoparia) [16]): 0%; pest or weed control at 500 g/ha (kochia (Kochia scoparia) [16]): 50%; pest or weed control at 125 g/ha [17]: 100%; pest or weed control at 500 g/ha [17]: 100%
